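Grown in 96-well plates, cells were treated for 48 hours with each compound at five concentrations. Insufficient inhibition: endpoint recorded as highest concentration tested. Here, GI50 denotes the concentration required for 50% inhibition of growth.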 Calls of active or inactive are those of the source. No stated cut-off is given here; in the data, active = GI50 up to about 1.1 µM and inactive = higher. Where a SMILES comes first, the peptide text is derived from it. The star is where a group is joined. Boc = CC(C)(C)OC(=O)*; Bn = c1ccc(C*)cc1
Key:
Assay in all cases: growth of human tumour cells (NCI), 48 h
A498 = system: A498
A549 = system: A549
ACHN = system: ACHN
BT-549 = system: BT-549
DU-145 = system: DU-145
HL-60 = system: HL-60
HT-29 = system: HT-29
LOX IMVI = system: LOX IMVI
MOLT-4 = system: MOLT-4
Malme-3M = system: Malme-3M
NCI-H460 = system: NCI-H460
OVCAR-5 = system: OVCAR-5
RXF 393 = system: RXF 393
SF-539 = system: SF-539
SN12C = system: SN12C
SNB-75 = system: SNB-75
SR = system: SR
T47D = system: T47D
UACC-257 = system: UACC-257
HCC 2998 = system: HCC 2998

SMILES	GI50 (A498)	GI50 (A549)	GI50 (ACHN)	GI50 (BT-549)	GI50 (DU-145)	GI50 (HL-60)	GI50 (HT-29)	GI50 (LOX IMVI)	GI50 (MOLT-4)	GI50 (Malme-3M)	GI50 (NCI-H460)	GI50 (OVCAR-5)	GI50 (RXF 393)	GI50 (SF-539)	GI50 (SN12C)	GI50 (SNB-75)	GI50 (SR)	GI50 (T47D)	GI50 (UACC-257)	GI50 (HCC 2998)
CSc1cccc(NC(=O)OC2CCCCCCCCCCC2)c1	21.7 µM (inactive)	26.9 µM (inactive)	27.7 µM (inactive)	34.8 µM (inactive)	31.8 µM (inactive)	14.3 µM (inactive)	16.6 µM (inactive)	18 µM (inactive)	23.5 µM (inactive)	24.8 µM (inactive)	16.4 µM (inactive)	30.3 µM (inactive)	18.8 µM (inactive)	24.4 µM (inactive)	15.5 µM (inactive)	35.2 µM (inactive)	26.9 µM (inactive)	25.4 µM (inactive)	16 µM (inactive)	
Cn1c(=O)c2c(ncn2CN2CCN(Cn3cnc4c3c(=O)n(C)c(=O)n4C)CC2)n(C)c1=O	> 100 µM (inactive)	34.2 µM (inactive)	27 µM (inactive)	62.2 µM (inactive)	45.7 µM (inactive)	23 µM (inactive)	26.2 µM (inactive)	24.2 µM (inactive)	17 µM (inactive)	73.6 µM (inactive)	19.2 µM (inactive)	> 100 µM (inactive)	20.2 µM (inactive)	56.2 µM (inactive)	46.9 µM (inactive)	74.8 µM (inactive)	28.6 µM (inactive)	30.5 µM (inactive)	47.1 µM (inactive)	
O=[N+]([O-])c1cc2[nH]nnc2c2nonc12		61.5 µM (inactive)	23.4 µM (inactive)	11.1 µM (inactive)	33.3 µM (inactive)	5.45 µM (inactive)	29.6 µM (inactive)	20.1 µM (inactive)	6.18 µM (inactive)	35.2 µM (inactive)	35.1 µM (inactive)	29 µM (inactive)		22.8 µM (inactive)	41.5 µM (inactive)	38.5 µM (inactive)	6.08 µM (inactive)	> 100 µM (inactive)	22.9 µM (inactive)	17.9 µM (inactive)
CCOC(=O)OC1C(Br)C2CCC1(C)C2(C)C (centres undefined)		16 µM (inactive)	15.3 µM (inactive)	17.2 µM (inactive)	18.7 µM (inactive)	6.21 µM (inactive)	6.05 µM (inactive)	6.59 µM (inactive)	4.6 µM (inactive)	16.7 µM (inactive)	4.79 µM (inactive)	17.7 µM (inactive)	10.9 µM (inactive)	14.1 µM (inactive)	14.4 µM (inactive)	11.1 µM (inactive)	2.39 µM (inactive)	15.6 µM (inactive)	15.9 µM (inactive)	12.3 µM (inactive)
N#C/C(C(=O)Nc1ccc(Cl)cc1)=C(/N)N1CCCC1	> 100 µM (inactive)	> 100 µM (inactive)	> 100 µM (inactive)	> 100 µM (inactive)	> 100 µM (inactive)	0.635 µM (active)		> 100 µM (inactive)	> 100 µM (inactive)		> 100 µM (inactive)	> 100 µM (inactive)		> 100 µM (inactive)	> 100 µM (inactive)	> 100 µM (inactive)	> 100 µM (inactive)	> 100 µM (inactive)	> 100 µM (inactive)	> 100 µM (inactive)
COc1cccc(-c2nc(-c3cnccn3)n(COCCO)n2)c1		> 100 µM (inactive)		> 100 µM (inactive)	> 100 µM (inactive)	> 100 µM (inactive)	> 100 µM (inactive)	> 100 µM (inactive)	> 100 µM (inactive)		> 100 µM (inactive)	> 100 µM (inactive)	> 100 µM (inactive)	> 100 µM (inactive)	> 100 µM (inactive)		> 100 µM (inactive)	> 100 µM (inactive)	> 100 µM (inactive)	> 100 µM (inactive)
Nc1cc2c(c3ccccc13)C(CCl)CN2C(=O)c1cc2cc(NC(=O)Nc3ccc4[nH]c(C(=O)N5CC(CCl)c6c5cc(N)c5ccccc65)cc4c3)ccc2[nH]1 (centres undefined)	0.197 µM (active)	0.0478 µM (active)	< 0.01 µM (active)	0.776 µM (active)	< 0.01 µM (active)		< 0.0176 µM (active)	0.0358 µM (active)	< 0.01 µM (active)	0.412 µM (active)	< 0.01 µM (active)	0.612 µM (active)	0.0719 µM (active)	0.0194 µM (active)	0.0656 µM (active)	0.0297 µM (active)	< 0.01 µM (active)	< 0.0377 µM (active)	1.16 µM (inactive)	0.259 µM (active)
COC(=O)C[C@H]1[C@]2(C)C3=C(C)[C@H](c4ccoc4)CC3O[C@@H]2[C@@H]2OC(=O)[C@]3(C)CCC(=O)[C@@]1(C)[C@@H]23 (some centres undefined)	> 100 µM (inactive)	47.1 µM (inactive)	> 100 µM (inactive)	51.5 µM (inactive)	32.4 µM (inactive)	22.8 µM (inactive)	33.8 µM (inactive)	40.1 µM (inactive)	20 µM (inactive)	40.4 µM (inactive)	> 100 µM (inactive)	27.5 µM (inactive)	53.5 µM (inactive)		69.7 µM (inactive)	42.8 µM (inactive)	19.6 µM (inactive)	> 100 µM (inactive)	61 µM (inactive)	
COC1(OC)CC(CO)(CNc2cc(Cl)nc(N)n2)C1		> 100 µM (inactive)	> 100 µM (inactive)	> 100 µM (inactive)	> 100 µM (inactive)	> 100 µM (inactive)	> 100 µM (inactive)	> 100 µM (inactive)	> 100 µM (inactive)	> 100 µM (inactive)	> 100 µM (inactive)	> 100 µM (inactive)	55.7 µM (inactive)	> 100 µM (inactive)	> 100 µM (inactive)		> 100 µM (inactive)	24.9 µM (inactive)	39.1 µM (inactive)	> 100 µM (inactive)
C=C1c2nc3ccccc3n2C=C(c2ccc(Cl)cc2)N1c1ccc(OCCN2CCCCC2)cc1	> 45 µM (inactive)	> 45 µM (inactive)	> 45 µM (inactive)	> 45 µM (inactive)	> 45 µM (inactive)	5.01 µM (inactive)	> 45 µM (inactive)	> 45 µM (inactive)	> 45 µM (inactive)	8.41 µM (inactive)	1.72 µM (inactive)	> 45 µM (inactive)	> 45 µM (inactive)	> 100 µM (inactive)	> 45 µM (inactive)		> 45 µM (inactive)	> 45 µM (inactive)	0.843 µM (active)	> 100 µM (inactive)
COc1cc2nc(-c3cccs3)nc(Nc3ccccc3C(=O)NN)c2cc1OC	> 100 µM (inactive)	> 100 µM (inactive)	> 100 µM (inactive)	> 100 µM (inactive)	> 100 µM (inactive)	44.9 µM (inactive)	> 100 µM (inactive)	51.5 µM (inactive)	> 100 µM (inactive)	> 100 µM (inactive)	> 100 µM (inactive)	> 100 µM (inactive)		> 100 µM (inactive)	> 100 µM (inactive)	> 100 µM (inactive)	23.6 µM (inactive)	> 100 µM (inactive)	> 100 µM (inactive)	> 100 µM (inactive)
Cc1ccc(C(=O)Nc2ccc(S(=O)(=O)O)c3cc(S(=O)(=O)O)cc(S(=O)(=O)O)c23)cc1NC(=O)Nc1cc(C(=O)Nc2ccc(S(=O)(=O)O)c3cc(S(=O)(=O)O)cc(S(=O)(=O)O)c23)ccc1C	> 87.5 µM (inactive)	> 87.5 µM (inactive)	> 87.5 µM (inactive)	> 87.5 µM (inactive)	> 87.5 µM (inactive)	> 87.5 µM (inactive)	> 87.5 µM (inactive)	> 87.5 µM (inactive)	> 87.5 µM (inactive)	> 87.5 µM (inactive)	> 87.5 µM (inactive)	> 87.5 µM (inactive)			> 87.5 µM (inactive)	> 87.5 µM (inactive)	> 87.5 µM (inactive)	> 87.5 µM (inactive)	> 87.5 µM (inactive)	> 87.5 µM (inactive)
COC(=O)C(CC(C)C)NC(=O)C(C)NC(=O)C(Cc1ccc(OCc2ccccc2)cc1)NC(=O)C(COCc1ccccc1)NC(=O)OC(C)(C)C (centres undefined) (Boc-S(Bn)Y(Bn)AL-OMe; configuration not given here)		> 100 µM (inactive)	> 100 µM (inactive)	> 100 µM (inactive)	> 100 µM (inactive)	41.2 µM (inactive)	> 100 µM (inactive)	> 100 µM (inactive)	96.2 µM (inactive)	> 100 µM (inactive)	> 100 µM (inactive)	> 100 µM (inactive)	> 100 µM (inactive)	> 100 µM (inactive)	> 100 µM (inactive)	> 100 µM (inactive)	> 100 µM (inactive)	> 100 µM (inactive)		
Cc1nc(=O)c2cc(CN(C)c3ccc(C(=O)N[C@@H](CCC(=O)O)C(=O)O)s3)ccc2[nH]1 [RALTITREXED]		11.9 µM (inactive)	0.0467 µM (active)	71.4 µM (inactive)	0.273 µM (active)	5.92 µM (inactive)	> 100 µM (inactive)	0.0303 µM (active)	0.0977 µM (active)	0.303 µM (active)	0.041 µM (active)	> 100 µM (inactive)		84.7 µM (inactive)	0.65 µM (active)	6.79 µM (inactive)	0.0399 µM (active)	> 100 µM (inactive)	> 100 µM (inactive)	
C=C1C/C(=C/C)C(=O)O[C@@H]2CCN3CC=C(COC(=O)[C@]1(C)O)[C@H]23 [SENECIPHYLLINE]	> 100 µM (inactive)	> 100 µM (inactive)	> 100 µM (inactive)	> 100 µM (inactive)	> 100 µM (inactive)	> 100 µM (inactive)	> 100 µM (inactive)	> 100 µM (inactive)			84.9 µM (inactive)	> 100 µM (inactive)		> 100 µM (inactive)		> 100 µM (inactive)	> 100 µM (inactive)	> 100 µM (inactive)	> 100 µM (inactive)	> 100 µM (inactive)

Source: ChEMBL document CHEMBL1201862, “PubChem BioAssay data set” (2004)
